Reference: patent US20250262189A1, “TREATMENT OF DISEASES ASSOCIATED WITH REDUCTIVE STRESS” (RDiscovery, LLC, priority 2022, published 2025)
“Also recorded” adds a separate entry of the source.

Tested on: GDF-15 expression in HUVEC cells
Experiment: GDF-15 mRNA expression by RT-qPCR in HUVEC cells under AZT-induced reductive stress
Format: cell-based, Human
Details: AZT 5 μM with ZLN-005 1 μM, harvested Day 6, two sets of runs (FIG. 1, FIG. 2), AZT vs. AZT/ZLN P=0.016 (FIG. 2)
Method: A study was performed to evaluate the ability of ZLN-005 to mitigate the effects of reductive stress induced by azidothymidine (AZT), which is believed to inhibit mitochondrial respiratory chain complex I and II.
Human human umbilical vein endothelial (HUVEC) cells were cultured in HuMedia-EG2 medium (Kurabo) at 5×10^4 cells per well in a six-well plate. Medium was supplemented with AZT (Sigma) at 5 μM, with or without ZLN-005 at 1 μM. Cells cultured without AZT and without ZLN-005 were used as non-treated control (NTC)). Medium was changed on days 2 and 4. Cells were harvested on Day 6 for analysis of GDF-15 mRNA expression by quantitative reverse transcription PCR (RT-qPCR).

Q: With `CC(C)(C)c1ccc(-c2nc3ccccc3[nH]2)cc1` [ZLN-005, 2-(4-tert-butylphenyl)-1H-benzimidazole] as the compound, how does the “GDF-15 expression compared to cells treated with AZT but not ZLN-005” value read?
A: Its value is “reduced GDF-15 expression; also recorded: decreases expression of reductive stress biomarker GDF-15”.
